The supplement of paper PMC10307832

Legend:
Assay in all cases: relative viability (nuclei count vs DMSO), 5 days (fraction); higher = more cells survive
[1] = compound: COC1=C(C=C(C=C1)C2=CC3=NC=CN3C(=N2)NC4=C(C=CC=N4)C(=O)N)OC [BAY61-3606] + Cc1nc(NC(=O)N2CCC[C@H]2C(N)=O)sc1-c1ccnc(C(C)(C)C(F)(F)F)c1 [Alpelisib] (partner 2 µM)
Method in brief: (§1)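 Medians of duplicate plates are given as relative viability. That measure is the nuclei count in treated wells divided by the count in vehicle wells. Counts were taken on 4× images of lung cancer cell lines in 1536-well plates, 5 days after pin-tool dosing the day after seeding with one drug alone or a fixed anchor-drug dose plus five library-drug doses (not always all listed) in √10 steps.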

[2] = compound: COc1cccc2c1C(=O)c1c(O)c3c(c(O)c1C2=O)C[C@@](O)(C(=O)CO)C[C@@H]3O[C@H]1C[C@H](N)[C@H](O)[C@H](C)O1 [Doxorubicin] + C[C@@H](Oc1cc(-c2cnn(C3CCNCC3)c2)cnc1N)c1c(Cl)ccc(F)c1Cl [Crizotinib] (partner 1 µM)
Method in brief: as §1

[3] = compound: COC1=C(C=C(C=C1)C2=CC3=NC=CN3C(=N2)NC4=C(C=CC=N4)C(=O)N)OC [BAY61-3606] + Cc1nc(Nc2ncc(C(=O)Nc3c(C)cccc3Cl)s2)cc(N2CCN(CCO)CC2)n1 [Dasatinib] (partner 0.075 µM)
Method in brief: as §1

[4] = compound: COc1cccc2c1C(=O)c1c(O)c3c(c(O)c1C2=O)C[C@@](O)(C(=O)CO)C[C@@H]3O[C@H]1C[C@H](N)[C@H](O)[C@H](C)O1 [Doxorubicin] + COc1cc2c(Oc3ccc(NC(=O)C4(C(=O)Nc5ccc(F)cc5)CC4)cc3F)ccnc2cc1OCCCN1CCOCC1 [Foretinib] (partner 0.25 µM)
Method in brief: as §1

Cell Line | relative viability ([1]; first compound 0.02 µM) | relative viability ([1]; first compound 0.06325 µM) | relative viability ([1]; first compound 0.2 µM) | relative viability ([1]; first compound 0.6325 µM) | relative viability ([1]; first compound 2 µM) | relative viability ([2]; first compound 0.001 µM) | relative viability ([2]; first compound 0.003162 µM) | relative viability ([2]; first compound 0.01 µM) | relative viability ([2]; first compound 0.03162 µM) | relative viability ([2]; first compound 0.1 µM) | relative viability ([3]; first compound 0.02 µM) | relative viability ([3]; first compound 0.06325 µM) | relative viability ([3]; first compound 0.2 µM) | relative viability ([3]; first compound 0.6325 µM) | relative viability ([3]; first compound 2 µM) | relative viability ([4]; first compound 0.001 µM) | relative viability ([4]; first compound 0.003162 µM) | relative viability ([4]; first compound 0.01 µM) | relative viability ([4]; first compound 0.03162 µM) | relative viability ([4]; first compound 0.1 µM)
201T | 1.07 | 1.03 | 1.05 | 1.1 | 1.09 | 1 | 1.07 | 1.05 | 1.05 | 1.04 | 0.545 | 0.509 | 0.546 | 0.548 | 0.571 | 0.963 | 1.03 | 1.02 | 0.898 | 0.523
A549 | 0.81 | 0.658 | 0.846 | 0.718 | 0.573 | 0.774 | 0.634 | 0.419 | 0.0759 | 0.0405 | – | – | – | – | – | 0.911 | 1.1 | 0.927 | 0.684 | 0.29
A-427 | 1.11 | 1.13 | 1.1 | 1.07 | 1.06 | 0.855 | 1.02 | 0.897 | 0.978 | 0.88 | 0.722 | 0.681 | 0.673 | 0.765 | 0.647 | 0.981 | 1.13 | 0.97 | 1.02 | 1.05
ABC-1 | 1.06 | 1.14 | 1.15 | 0.968 | 1.06 | 1.09 | 1.28 | 0.804 | 0.294 | 0.209 | 0.658 | 0.653 | 0.557 | 0.553 | 0.476 | 1.48 | 1.13 | 1.02 | 0.676 | 0.339
BEN | 1.23 | 0.831 | 1.24 | 1.24 | 0.958 | 0.925 | 0.968 | 0.825 | 0.707 | 0.832 | 0.342 | 0.309 | 0.296 | 0.318 | 0.321 | 0.978 | 0.678 | 0.612 | 0.49 | 0.582
CAL-12T | 1.21 | 1.28 | 1.11 | 1.4 | 0.607 | 0.671 | 0.507 | 0.566 | 0.182 | 0.116 | 0.495 | 0.383 | 0.404 | 0.479 | 0.131 | 1.03 | 1.07 | 1.04 | 0.568 | 0.35
COR-L23 | 0.868 | 0.764 | 0.753 | 0.78 | 0.486 | 0.764 | 0.66 | 0.562 | 0.252 | 0.0977 | 0.609 | 0.548 | 0.504 | 0.467 | 0.316 | 0.964 | 1.06 | 0.918 | 0.64 | 0.221
COR-L 105 | 0.942 | 0.988 | 0.76 | 1.02 | 0.788 | 0.802 | 0.841 | 0.598 | 0.38 | 0.248 | 0.325 | 0.332 | 0.339 | 0.333 | 0.203 | 1.02 | 0.943 | 0.9 | 0.62 | 0.7
Calu-6 | 1.04 | 1.13 | 0.946 | 0.956 | 0.703 | 0.776 | 0.708 | 0.52 | 0.229 | 0.171 | – | – | – | – | – | 0.945 | 1.01 | 0.828 | 0.619 | 0.362
ChaGo-K-1 | – | – | – | – | – | 1.15 | 1.01 | 0.98 | 0.45 | 0.378 | 0.566 | 0.547 | 0.591 | 0.548 | 0.596 | 1.03 | 0.946 | 0.835 | 0.937 | 0.826
EBC-1 | 0.907 | 0.902 | 0.869 | 0.928 | 0.686 | 0.222 | 0.189 | 0.179 | 0.177 | 0.164 | – | – | – | – | – | 0.114 | 0.1 | 0.0884 | 0.0952 | 0.0885
EKVX | 0.916 | 0.886 | 0.89 | 0.981 | 0.744 | 0.865 | 1.02 | 0.792 | 1.02 | 0.948 | 0.602 | 0.455 | 0.436 | 0.58 | 0.297 | 0.735 | 0.891 | 0.912 | 0.831 | 0.704
EMC-BAC-2 | 0.817 | 0.837 | 0.75 | 0.85 | 0.802 | 0.793 | 0.824 | 0.748 | 0.674 | 0.692 | 0.359 | 0.323 | 0.353 | 0.298 | 0.276 | 1.15 | 1.06 | 0.861 | 0.595 | 0.582
EPLC-272H | 1.03 | 0.935 | 1 | 0.986 | 0.905 | 1.37 | 0.965 | 1.01 | 0.806 | 0.861 | 0.386 | 0.385 | 0.315 | 0.41 | 0.275 | 0.899 | 0.67 | 0.753 | 0.517 | 0.78
H3255 | 0.708 | 0.635 | 0.673 | 0.874 | 0.735 | 0.917 | 0.88 | 0.804 | 0.608 | 0.45 | 0.411 | 0.304 | 0.352 | 0.335 | 0.462 | 0.791 | 0.821 | 0.973 | 0.818 | 0.863
HARA | 0.867 | 0.88 | 0.877 | 0.83 | 0.561 | 1.04 | 1.04 | 1.03 | 1.01 | 0.959 | 0.168 | 0.233 | 0.323 | 0.245 | 0.28 | 0.791 | 0.946 | 0.779 | 0.816 | 0.866
HCC-15 | 0.836 | 0.94 | 0.929 | 0.862 | 0.768 | 0.733 | 0.817 | 0.767 | 0.551 | 0.534 | 0.696 | 0.59 | 0.592 | 0.551 | 0.483 | – | 0.922 | 0.94 | 0.49 | 0.404
